Measurements from patent US20100227381A1, “ENHANCED BIODEGRADATION OF NON-AQUEOUS PHASE LIQUIDS USING SURFACTANT ENHANCED IN-SITU CHEMICAL OXIDATION” (VERUTEK TECHNOLOGIES, INC., priority 2007, published 2010).

Key:
[1] = pure compound in water; cited from earlier work
[2] = Chlorinated DNAPL dissolution in control sample without cosolvent-surfactant (equilibrium solubility in water in presence of the DNAPL); conditions: 25 °C, thermodynamic from solid
Experimental: In order to test the treatment of chlorinated compounds, a chlorinated solvent DNAPL was obtained from a site consisting of chlorinated solvents and chlorinated semi-volatile compounds. […]
The data collected under the experimentation conditions presented in Table 2 were obtained at 25° C. with 60 rpm shaker table mixing for 48 hours. After the shaker was shut off, the samples sat quietly for 5 minutes before the supernatant was analyzed. DNAPLmax represents the maximum concentration of DNAPL that may dissolve, given the mass of DNAPL and the volume of water.
Samples from experiment number 1, 3, 5, 7, and 8 (control) were analyzed. Additionally, measurements of interfacial tension (IFT) were conducted on the samples after the 48-hour period.

SMILES | Pure Compound Aqueous Solubility [1] | solubility at 48 h [2] [µg/mL]
Clc1c(Cl)c(Cl)c2c(Cl)c(Cl)c(Cl)c(Cl)c2c1Cl [Octachloronaphthalene (OCN), Octachloronaphthalene] | insoluble | –
ClC(Cl)(Cl)C(Cl)(Cl)Cl [Hexachloroethane (HCE), Hexachloroethane] | 50 µg/mL | –
ClC(Cl)=C(Cl)Cl [Tetrachloroethene (PCE), Tetrachloroethene] | 800 µg/mL | 140
ClC(Cl)=C(Cl)C(Cl)=C(Cl)Cl [Hexachlorobutadiene (HCBD), Hexachlorobutadiene] | 0.005 µg/mL | –
